Results reported in patent EP0139358B1, “N6-substituted diarylalkyl adenosines, processes for their production and pharmaceutical compositions comprising the same” (priority 1983, dated 1985).
Like-named read-outs stand apart in the source and are kept apart here.

What was measured:
Swiss-Webster male mice [1] = assay: Mouse Activity and Screen Test (MAST): screen test (ST); format: in vivo; conditions: for Inhibition of screen test failure: percent of mice falling off the screen; for MAST ST LAD: lowest dose at which an A rating (60-100%) is achieved, screen test, intraperitoneally
Protocol: (§1) Treatments are administered intraperitoneally one hour prior to testing. […] Compounds are dissolved or suspended in 0.2% Methocel. Control animals are injected with Methocel.
The compounds are identified in the Examples.

conscious rat = assay: Antihypertensive evaluation (AHP3): aortic blood pressure and heart rate; format: in vivo; conditions: for minimal effective dose: read-out: AHP3 BP LAD
Description: […] EVALUATION (AHP3)
This test procedure is described in the following paragraphs.
A Method for the Direct Monitoring of Aortic Blood Pressure and Heart Rate from Conscious Rats
The continuous monitoring of pulsatile blood pressure (BP) from unrestrained conscious rats surgically equipped with polyethylene cannulas was accomplished by means of a computer assisted data capture scheme (CADCS). The absic elements of the methodology are the cannulation procedure and the CADCS.
Cannulation Procedure: Rats were anesthetized with Telazol (1:1 tiletamine HCI and zolazepam HCI); 20-40 mg/kg IM and the descending aorta exposed via a midline incision. Cannulas fabricated from polyethylene tubing were inserted into the aorta via an undersized puncture hole below the renal arteries. The puncture hole was made by a 23 G disposable needle with a section of the aorta clamped off above and below the puncture site. The cannulas, consisting of a PE100 (0.86 mm ID) body and a PE50 (0.58 mm ID) tip, were attached to a trocar, inserted through the psoas muscle, and passed subcutaneously along the midline of the back and externalized between the ears. The cannulas were anchored to the psoas muscle and between the scalulae (3-0 green braided suture). The midline incision was closed in two steps (muscle first, skin second) using continuous over-and over sutures (4-0 chronic). Each rat was then given penicillin 30,000 units subcutaneously (Penicillin G Procaine Sterile Suspension).
The rats were fitted with a harness-spring-swivel assembly designed to protect the cannula and to provide the rat relative freedom of movement. The harnesses were fabricated from nylon hook and loop tape cemented to a metal plate to which spring wires (18-8 stainless steel), were attached to brass swivels. Each polyethylene cannula was channeled through a spring and connected through a swivel to a pressure transducer (Model P23Gb; Statham Instruments; Hato Rey, Puerto Rico) and an infusion pump (Sage model 234-7; Orion Research, Cambridge, Ma) by means of PE100 tubing. While on test, each rat received a continuous slow infusion of heparinized saline solution (approximately 400 I or 40 units of heparin per 24 hour period) to prevent clot formation. Additional "flushes" of the cannula with heparinized saline were carried out when the aortic pulse pressure (systolic minus diastolic) was less than 25 mm Hg.
CADCS: The pulsatile blood pressure and heart rate of each of 32 rats was monitored every minute by means of two in-laboratory microcomputers communicating directly with a data concentrator computer. The data were first stored on the data concentrator disk and then transferred to a magnetic tape for analysis and report generation by the main research computer. The overall scheme involved modulating the primary signal from the pressure transducer, generating the primary data set of the one-minute values for systolic, diastolic, and mean blood pressures and heart rate by the in-lab microcomputer and the storage, analysis, and report generation by the main research computer.
The transducers were connected to analog signal conditioning modules. The modules providing a regulated excitation voltage for the transducers, amplification as required to interface the microprocessors and an active low pass filter to compensate for the pressure wave form distortion produced by the flexible, fluid filled, narrow cannula.
The microcomputers (one for each of two groups of 16 rats) were connected to the input components through the module interface units, an analog-to-digital converter for the pressure wave form signal and the digital inputs for the dose and event marker switches. The microcomputer controlled the sequential acquisition of data from the modular interface units through an internal synchronous time-of-day clock/ time base generator. […]

rat heart = assay: Coronary blood flow (PCS2A): isolated perfused heart
Protocol: CORONARY BLOOD FLOW (PCS2A)
Male rats (400-600 gms) are pretreated with Na haparin 2000 units and anesthetized with Na pentobarbital (50 mg/kg) administered intraperitoneally. Once anesthetized, the rat heart is rapidly excised, the ascending aorta fitted to the aortic perfusion cannula, and […] with a ligature. The coronary arteries are perfused initially at a rate of about 15 ml/min for two to three minutes, afterwhich they are perfused at constant pressure of 70 mm Hg and temperature of 37°C. The electrocardiogram (ECG) is recorded using two platinum electrodes positioned at the base and apex of the left ventricle. A second heart is excised, cannulated, and perfused by the same method outlined above. Both hearts are tested in parallel. The standard physiological salt solution (PSS) is a modified Krebs-Hanseleit bicarbonate buffer of the following composition in mM concentration: NaCI, 127; NaHC03, 25; dextrose, 5.5; Na Pyruvate, 2.0: KCI, 4.7; MgS04, 1.1; KH 2P04, 1.2; CaCl2·2H2O, 2.5; CaNa2 EDTA, 0.05.
A 30-minute stabilization period is observed before starting the test protocol.
The microprocessor control system is a servo mechanism which permits coronary perfusion pressure (CPP) and drug concentration to be maintained constant independent of changes in coronary flow. The level at which CPP and drug concentration are maintained can be changed by commands communicated through the microprocessor keyboard. Dose-response curves are carried out by perfusing concentrated drug solution (DC) at rates proportional to total coronary flow (CFT). Drug concentrations are increased by proportionate increases in the rate of DC infusion over CFT via the microprocessor keyboard. The proportional flow rates for DC:CFT is about .0002:1 at the low end and .02: at the high end of the dose-response curve. Dose-response curves encompassing at least two log doses are carried out by preparing two DCs with a concentration difference of 1:100. Following the first dose range of two log doses, the DC are switched, proportional pumping rate adjusted, and the dose-response curve continued for another two log doses. The standard dose-response curve is carried out in one-half log dose increments starting at a subthreshold dose and ending at a dose which produces near maximal response in activity. Standard reference compounds are tested over the range of 10-^9 to 10-^6M.
Measurements are for heart rate (HR) and coronary flow (CF). Units are: HR, beats/minute (bpm) and CF, milliliters/minute (ml/min). HR is calculated from the ECG strip chart recording and CF is calculated by recording analog outputs from pumps 1 and 2. Outputs from pump #1 = CFT and the output from pump #2 = CF for heart B (CFg). CF for heart A (CFA) is calculated (CFT - CFB = CFA).
Using the above technique, the effects of the compound of Examples 1 and 2 are as follows: […]

[2] = tested on: Long-Evans rats or squirrel-monkeys; assay: Antipsychotic lever-push shock avoidance protocol (SIDR); format: in vivo; conditions: Rattus norvegicus; shock avoidance lever pushing; read-out: SIDR ED50
Protocol: Representative compounds of the invention (identified in the Examples) were also tested for antipsychotic activity according to the following protocol (SIDR). […] Mature male Long-Evans rats or squirrel-monkeys are conditioned to push a lever in order to avoid a painful electric footshock. If the animal fails to push the lever, he receives a shock every ten seconds until the lever is pushed. Shocks can be terminated by pushing the lever. Thereafter, as long as the lever is pushed at least once every 20 seconds, there will be no shock. Each animal acts as its own control; one weekly session is used to establish baseline behavior and another session later in the week is used as a drug session. Once patterns of avoidance are established, the effects of standard and unknown compounds are studied. All events are electronically programmed and the response to these events counted or used as feedback to the program.

Swiss-Webster male mice [3] = assay: Mouse Activity and Screen Test (MAST): inhibition of spontaneous locomotion (LI); format: in vivo
Protocol: as §1
Immediately following the screen test, the final phase of testing is initiated by placing each group of three mice in one actophotometer (Life Sciences, 22, 1067-1076, 1978). The actophotometer consists of a cylindrical chamber whose center is occupied by another cylinder which contains the illumination for six photocells located on the perimeter of the chamber. Six light-beam interruptions equal one count. Locomotor activity is recorded by computer at ten minute intervals for 60 minutes. […]

[4] = lowest dose tested at which a >10% reduction in blood pressure for four consecutive hours is achieved, conscious rat
[5] = coronary flow, isolated perfused rat heart, read-out: PCS2A CF ED50
[6] = heart rate, isolated perfused rat heart, read-out: PCS2A HR ED50
[7] = 10 mg/kg intraperitoneally, one hour prior to testing; vs vehicle
[8] = 30 mg/kg intraperitoneally, one hour prior to testing; vs vehicle
[9] = 100 mg/kg intraperitoneally, one hour prior to testing; vs vehicle
[10] = Mus musculus, ip; read-out: MAST LI LAD

Inhibition of screen test failure (Swiss-Webster male mice [1]; 10 mg/kg intraperitoneally) [%] | Inhibition of screen test failure (Swiss-Webster male mice [1]; 30 mg/kg intraperitoneally) [%] | Inhibition of screen test failure (Swiss-Webster male mice [1]; 100 mg/kg intraperitoneally) [%] | MAST ST LAD (Swiss-Webster male mice [1]) [mg/kg] | EC50 (rat heart; [5]) [nM] | SMILES | Mμ.c. ↓ (conscious rat; 10 mg/kg, conscious rat, decrease in mean arterial blood pressure) [%] | HR ↑ (conscious rat; 10 mg/kg, conscious rat, heart rate increase) [%] | minimal effective dose (conscious rat; [4]) [mg/kg] | EC50 (rat heart; [6]) [nM] | ED50 [2] [mg/kg] | Inhibition of mouse locomotor activity (Swiss-Webster male mice [3]; [7]) [%] | Inhibition of mouse locomotor activity (Swiss-Webster male mice [3]; [8]) [%] | Inhibition of mouse locomotor activity (Swiss-Webster male mice [3]; [9]) [%] | minimal effective dose (Swiss-Webster male mice [3]; [10]) [mg/kg] | minimal effective dose (conscious rat; Rattus norvegicus) [mg/kg] | EC50 (rat heart; Rattus norvegicus, read-out: PCS2A CF ED50) [nM] | EC50 (rat heart; Rattus norvegicus, read-out: PCS2A HR ED50) [nM] | minimal effective dose (Swiss-Webster male mice [3]; Mus musculus, ip, read-out: MAST LI LAD) [mg/kg]
0 | 11 | 44 | >100 | 30000 | OC[C@H]1O[C@@H](n2cnc3c(NCC(c4ccccc4)c4ccccc4)nc(Cl)nc32)[C@H](O)[C@@H]1O [Example 3, N^6-(2,2-Dipenylethyl)-2-chloroadenosine] | 15 | <20 | 10 | > 30000 | 9.6 | 56 | 85 | 92 | 10 |  |  |  | 
0 | 11 | 22 | >100 | 1000 | Nc1nc(NCC(c2ccccc2)c2ccccc2)c2ncn([C@@H]3O[C@H](CO)[C@@H](O)[C@H]3O)c2n1 [Example 4, N^6-(2,2-Diphenylethyl)-2-aminoadenosine] |  |  | 30 | > 100 | 3.8 | 64 | 87 | 95 | 10 |  |  |  | 
 |  |  | >100 | > 3000 | OC[C@H]1O[C@@H](n2cnc3c(NC(c4ccccc4)c4ccccc4)ncnc32)[C@H](O)[C@@H]1O [Example 5, N^6-Diphenylmethyladenosine, reference compound] |  |  | > 10 | > 3000 | > 50 |  |  |  | 100 |  |  |  | 
 |  |  | >100 | 10 | OC[C@H]1O[C@@H](n2cnc3c(NCC(c4ccccc4)c4ccc(F)cc4)ncnc32)[C@H](O)[C@@H]1O (some centres unmarked) [Example 10, N^6-(2-(4-Fluorophenyl)-2-phenylethyl)adenosine] |  |  | 10 | 1400 | 8.6 |  |  |  | 3 |  |  |  | 
 |  |  | >100 | > 10000 | Nc1nc(NCC(c2ccccc2)c2ccc(F)cc2)c2ncn([C@@H]3O[C@H](CO)[C@@H](O)[C@H]3O)c2n1 (some centres unmarked) [Example 12, N^6-(2-(4-Fluorophenyl)-2-phenylethyl)-2-amino adenosine] |  |  | 10 | > 10000 |  |  |  |  | 30 |  |  |  | 
 |  |  | 30 | 30 | COc1ccc(C(CNc2ncnc3c2ncn3[C@@H]2O[C@H](CO)[C@@H](O)[C@H]2O)c2ccccc2)cc1 (some centres unmarked) [Example 19, N^6-(2-(4-Methoxyphenyl)-2-phenylethyl)adenosine] |  |  | 10 | > 3000 |  |  |  |  | 10 |  |  |  | 
 |  |  | >100 | > 10000 | CC(CNc1nc(N)nc2c1ncn2[C@@H]1O[C@H](CO)[C@@H](O)[C@H]1O)(c1ccccc1)c1ccccc1 [Example 21, N'-(2,2-Diphenylpropyl)-2-aminoadenosine] |  |  | > 10 | > 10000 |  |  |  |  | 30 |  |  |  | 
 |  |  | 100 | > 1000 | OC[C@H]1O[C@@H](n2cnc3c(NCC(O)(c4ccccc4)c4ccccc4)ncnc32)[C@H](O)[C@@H]1O [Example 22, N^6-(2,2-Diphenyl-2-hydroxyethyl)adenosine] |  |  | 10 | 500 |  |  |  |  | 1 |  |  |  | 
 |  |  | >100 | > 3000 | Nc1nc(NCC(O)(c2ccccc2)c2ccccc2)c2ncn([C@@H]3O[C@H](CO)[C@@H](O)[C@H]3O)c2n1 [Example 23, N^6-(2,2-Diphenyl-2-hydroxyethyl)-2-aminoadenosine] |  |  | > 10 | ~1000 |  |  |  |  | 3 |  |  |  | 

SMILES | Inhibition of screen test failure (Swiss-Webster male mice [1]; 10 mg/kg intraperitoneally) [%] | Inhibition of screen test failure (Swiss-Webster male mice [1]; 30 mg/kg intraperitoneally) [%] | Inhibition of screen test failure (Swiss-Webster male mice [1]; 100 mg/kg intraperitoneally) [%] | MAST ST LAD (Swiss-Webster male mice [1]) [mg/kg] | EC50 (rat heart; [5]) [nM] | Mμ.c. ↓ (conscious rat; 10 mg/kg, conscious rat, decrease in mean arterial blood pressure) [%] | HR ↑ (conscious rat; 10 mg/kg, conscious rat, heart rate increase) [%] | minimal effective dose (conscious rat; [4]) [mg/kg] | EC50 (rat heart; [6]) [nM] | ED50 [2] [mg/kg] | Inhibition of mouse locomotor activity (Swiss-Webster male mice [3]; [7]) [%] | Inhibition of mouse locomotor activity (Swiss-Webster male mice [3]; [8]) [%] | Inhibition of mouse locomotor activity (Swiss-Webster male mice [3]; [9]) [%] | minimal effective dose (Swiss-Webster male mice [3]; [10]) [mg/kg] | minimal effective dose (conscious rat; Rattus norvegicus) [mg/kg] | EC50 (rat heart; Rattus norvegicus, read-out: PCS2A CF ED50) [nM] | EC50 (rat heart; Rattus norvegicus, read-out: PCS2A HR ED50) [nM] | minimal effective dose (Swiss-Webster male mice [3]; Mus musculus, ip, read-out: MAST LI LAD) [mg/kg]
O=[N+]([O-])c1ccc(C(CNc2ncnc3c2ncn3[C@@H]2O[C@H](CO)[C@@H](O)[C@H]2O)c2ccc([N+](=O)[O-])cc2)cc1 [Example 20, N^6-(2,2-Di-(4-nitrophenyl)ethyl)adenosine] |  |  |  | >100 |  |  |  |  |  |  |  |  |  |  | > 10 | 300 | > 3000 | 100
